The source of these data is patent publication US8252781B2, “1,2-diazetidin-3-one derivatives and drugs containing same” (Kowa Company, Ltd., priority 2008, dated 2012).

Read-outs that look alike come from different tables or passages of the source.

Common to all, as to type: biochemical
The target of experiment [1] is T1, human 11β-HSD1 (Homo sapiens, UniProt P28845).
T1 construct: The obtained PCR products of about 0.9 kbp, 1.2 kbp, and 0.9 kbp were subcloned into an expression vector pcDNA3.1+/Zeo; expressed in transfected cells
Briefly: Enzyme inhibitory activity, human 11β-HSD1 (lysate of stably expressing HEK293 cells, cortisol by competitive ELISA). To be noted: human 11β-HSD1, cell lysate, 37° C. for 1 hour, read-out: h HSD1 in vitro assay (IC50 uM). The method, boiled down: (§1)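 Sonicated lysates of stably transfected cells (diluted to 0.1–0.4 mg/mL before addition) reacted for 1 h at 37 °C in pH 7.4 Tris/sucrose/EGTA/EDTA/MgCl2 buffer with 100 nmol/L cortisone or cortisol and 400 μmol/L NADPH or NAD+, then were heat-stopped at 95 °C. Inhibition rate = 100 minus residual activity.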
In general terms: ELISA stands for enzyme-linked immunosorbent assay.

For experiment [2], the target named is T2, human 11β-HSD2 (Homo sapiens, UniProt P80365).
T2 construct: The obtained PCR products of about 0.9 kbp, 1.2 kbp, and 0.9 kbp were subcloned into an expression vector pcDNA3.1+/Zeo; expressed in transfected cells
T2 sequence (P80365 1-405): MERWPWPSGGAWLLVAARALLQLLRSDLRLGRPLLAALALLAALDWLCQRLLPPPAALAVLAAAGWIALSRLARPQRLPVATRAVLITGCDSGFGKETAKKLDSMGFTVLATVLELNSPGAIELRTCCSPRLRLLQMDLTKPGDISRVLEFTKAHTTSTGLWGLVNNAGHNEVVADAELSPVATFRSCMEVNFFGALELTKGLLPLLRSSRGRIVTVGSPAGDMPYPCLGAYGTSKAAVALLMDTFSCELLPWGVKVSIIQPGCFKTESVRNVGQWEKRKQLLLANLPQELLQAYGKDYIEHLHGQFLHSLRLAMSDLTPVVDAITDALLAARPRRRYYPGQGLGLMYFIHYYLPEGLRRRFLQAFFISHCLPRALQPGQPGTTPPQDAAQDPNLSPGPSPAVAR
In words: Enzyme inhibitory activity, human 11β-HSD2 (lysate of stably expressing HEK293 cells, cortisol by competitive ELISA). To be noted: Table 1; human 11β-HSD2, cell lysate, 37° C. for 1 hour; read-out: h HSD2 in vitro assay (IC50 uM). The protocol:
1. Human 11β-HSD1-, Human 11β-HSD2- and Mouse 11β-HSD1-Gene Clonings and Establishment of Stably Expressing Cells
Human 11β-HSD1-, human 11β-HSD2-, and mouse 11β-HSD1-gene clonings were conducted using as a template a reverse transcription product of human-liver RNA, human-kidney RNA (CELL APPLICATIONS), and mouse-kidney RNA respectively, by means of PCR cloning with reference to nucleotide sequences of Genbank Accession Nos. NM_005525, NM_000196, and NM_008288. The obtained PCR products of about 0.9 kbp, 1.2 kbp, and 0.9 kbp were subcloned into an expression vector pcDNA3.1+/Zeo (Invitrogen).
Human 11β-HSD1- and human 11β-HSD2-expressing vectors were transfected into human kidney-derived cell line, HEK293 cells, using a transfection reagent, jet PEI (Funakoshi). Mouse 11β-HSD1 was transfected to Chinese hamster ovary-derived cell line, CHO-K1 cells. Selection was conducted with 200-400 μg/mL of zeocine (Invitrogen) to provide stably expressing-cell clones. The stably expressing cells were suspended in buffer solution A (20 mmol/L Tris-HCl, pH 7.4, 250 mmol/L sucrose, 1 mmol/L EGTA, 1 mmol/L EDTA, 1 mmol/L MgCl2), sonicated, and then stored at −80° C.
2. Assay of Enzyme Inhibitory Activity
An enzymatic reaction was conducted using a polystyrene 96-well plate. Each well was added with 1 μL of a test agent dissolved in DMSO and then diluted (0.003 to 3 mmol/L), and further added with 10 μL of cell lysate diluted to a concentration of 0.1 mg/mL to 0.4 mg/mL. Next, 90 μL of buffer solution A containing substrate (100 nmol/L cortisone or cortisol) and coenzyme (400 μmol/L NADPH or NAD+) was added and the mixture was incubated at 37° C. for 1 hour. The enzymatic reaction was stopped by treating at 95° C. for 3 minutes. Cortisol that was present in the reaction solution was determined by a competitive ELISA shown below.
Anti-rabbit IgG antibody (Chemi-con) diluted to 2 μg/mL with carbonate buffer solution (pH 9.6) was added in 100 μL each to a 96-well immuno plate (Nunc) and immobilized by an incubation at 4° C. overnight. 50 μL of enzymatic reaction solution was put onto the plates, and further, anti-cortisol antibody (Cosmo Bio) and HRP-labeled cortisol (Cosmo Bio), diluted with buffer solution B (25 mmol/L Tris-HCl pH 7.4, 137 mmol/L NaCl, 2.68 mmol/L KCl), were added in 50 μL respectively and incubated at 4° C. overnight. After washed three times with buffer solution B containing 0.05% Tween 20, the plates were allowed to develop color by adding 100 μL of color reagent, TMB (Moss). The color reaction was stopped by 25 μL of 1 mol/L sulfuric acid and the absorbance was determined at 450 nm with a microplate reader (Molecular Device, VersaMax).
The values of human 11β-HSD1, human 11β-HSD2, and mouse 11β-HSD1 activities were subtracted from 100, and the resultant values were regarded as the respective 11β-HSD inhibition rates of example compounds. […] The comparison of human 11β-HSD1 and human 11β-HSD2 inhibiting activities is shown in Table 1, and the comparison of human 11β-HSD1 and mouse 11β-HSD1 inhibiting activities is shown in Table 2.

Experiment [3] concerns the target T3, mouse 11β-HSD1 (Mus musculus, UniProt P50172).
T3 construct: The obtained PCR products of about 0.9 kbp, 1.2 kbp, and 0.9 kbp were subcloned into an expression vector pcDNA3.1+/Zeo; expressed in transfected cells
Briefly: Enzyme inhibitory activity, mouse 11β-HSD1 (lysate of stably expressing CHO-K1 cells, cortisol by competitive ELISA). To be noted: Table 2; mouse 11β-HSD1, cell lysate, 37° C. for 1 hour; read-out: m HSD1 in vitro assay (IC50 uM). The method, boiled down: as §1

T1 sequence (P28845 whole entry): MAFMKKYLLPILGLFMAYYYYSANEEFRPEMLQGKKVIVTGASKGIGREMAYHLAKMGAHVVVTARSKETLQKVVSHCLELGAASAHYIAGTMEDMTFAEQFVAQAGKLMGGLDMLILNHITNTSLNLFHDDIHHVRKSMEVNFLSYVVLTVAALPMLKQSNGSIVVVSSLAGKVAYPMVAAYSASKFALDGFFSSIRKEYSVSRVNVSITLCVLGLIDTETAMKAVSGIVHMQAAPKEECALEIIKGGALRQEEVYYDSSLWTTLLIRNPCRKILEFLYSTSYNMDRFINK
T3 sequence (P50172 whole entry): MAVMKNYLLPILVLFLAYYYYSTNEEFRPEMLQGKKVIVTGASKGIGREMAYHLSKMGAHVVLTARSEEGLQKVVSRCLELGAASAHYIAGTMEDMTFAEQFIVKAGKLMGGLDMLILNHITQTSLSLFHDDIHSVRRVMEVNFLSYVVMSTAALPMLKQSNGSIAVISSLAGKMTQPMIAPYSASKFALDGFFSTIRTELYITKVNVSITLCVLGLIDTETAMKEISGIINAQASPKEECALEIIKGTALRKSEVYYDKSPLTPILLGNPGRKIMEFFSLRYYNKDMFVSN

For `CC1(C)C(=O)N(C2C3CC4CC(C3)CC2C4)N1c1ccccc1Cl` (centres unmarked) [Example 189, 1-(2-chlorophenyl)-4,4-dimethyl-2-(adamantan-2-yl)-1,2-diazetidin-3-one], the half-inhibitory concentration (IC50) (commonly the concentration that inhibits the measured activity by half) in experiment [1] (Table 1) was 0.022 µM; in experiment [2], 3 to 30 µM.

`CC1(C)C(=O)N(C2CCCCCCC2)N1Cc1cccc(Cl)c1Cl` [Example 74, 2-cyclooctyl-1-(2,3-dichlorobenzyl)-4,4-dimethyl-1,2-diazetidin-3-one]: the concentration for half-maximal inhibition (IC50) in experiment [1] (Table 1) is 0.046 µM; in experiment [2], 3 to 30 µM; in experiment [3], 0.13 µM.

As to `CC1(C)C(=O)N(C2C3CC4CC(C3)CC2C4)N1c1cccc(Cl)c1` (centres unmarked) [Example 190, 1-(3-chlorophenyl)-4,4-dimethyl-2-(adamantan-2-yl)-1,2-diazetidin-3-one], the half-maximal inhibitory concentration (IC50) in experiment [1] (Table 1) is 0.093 µM; in experiment [2], 3 to 30 µM.

For the compound `CC1(C)C(=O)N([C@H]2C3CC4CC2C[C@](O)(C4)C3)N1c1ccccc1Cl` [Example 227, trans-1-(2-chlorophenyl)-2-(5-hydroxyadamantan-2-yl)-4,4-dimethyl-1,2-diazetidin-3-one], the IC50 in experiment [1] (Table 1) was 0.023 µM; in experiment [2] it was 3 to 30 µM; in experiment [3], 0.95 µM.

In the case of `CC1(C)C(=O)N([C@H]2C3CC4CC2C[C@](O)(C4)C3)N1c1cccc(Cl)c1Cl` [Example 231, trans-1-(2,3-dichlorophenyl)-2-(5-hydroxyadamantan-2-yl)-4,4-dimethyl-1,2-diazetidin-3-one], the IC50 in experiment [1] (Table 1) is 0.088 µM; in experiment [2], more than 30 µM.

Consider `CC1(C)C(=O)N(C2C3CC4CC(C3)CC2C4)N1Cc1ccccc1I` (centres unmarked) [Example 40, 1-(2-iodobenzyl)-4,4-dimethyl-2-(adamantan-2-yl)-1,2-diazetidin-3-one], for which the IC50 was found to be 0.012 µM in experiment [1] (Table 1), 10 µM in experiment [2] and 0.084 µM in experiment [3].

Consider `CC1(C)C(=O)N(C2C3CC4CC(C3)CC2C4)N1c1ccc(Cl)cc1Cl` (centres unmarked) [Example 208, 1-(2,4-dichlorophenyl)-4,4-dimethyl-2-(adamantan-2-yl)-1,2-diazetidin-3-one], for which the IC50 is 0.02 µM in experiment [1] (Table 1) and 3 to 30 µM in experiment [2].

`CC1(C)C(=O)N(C2C3CC4CC(C3)CC2C4)N1Cc1ccccc1Br` (centres unmarked) [Example 39, 1-(2-bromobenzyl)-4,4-dimethyl-2-(adamantan-2-yl)-1,2-diazetidin-3-one]: the figures for the half-maximal inhibitory concentration (IC50) in experiment [1] (Table 1), in experiment [2] and in experiment [3] were 0.015 µM, 3 µM and 0.04 µM, respectively.

As to `CC1(C)C(=O)N(C2C3CC4CC(C3)CC2C4)N1Cc1ccc(Cl)cc1Cl` (centres unmarked) [Example 52, 1-(2,4-dichlorobenzyl)-4,4-dimethyl-2-(adamantan-2-yl)-1,2-diazetidin-3-one], the figures for the IC50 in experiment [1] (Table 1), in experiment [2] and in experiment [3] were 0.078 µM, 9.5 µM and 0.16 µM, respectively.

For `CC1(C)C(=O)N(C2CCCCCCC2)N1Cc1cc(F)ccc1Cl` [Example 77, 1-(2-chloro-5-fluorobenzyl)-2-cyclooctyl-4,4-dimethyl-1,2-diazetidin-3-one], the IC50 in experiment [1] (Table 1) was 0.016 µM; in experiment [2] it was 2 µM; in experiment [3], 0.092 µM.

For the compound `CC1(C)C(=O)N([C@H]2C3CC4CC2C[C@@](O)(C4)C3)N1c1ccc2ccccc2c1` [Example 248, cis-2-(5-hydroxyadamantan-2-yl)-4,4-dimethyl-1-(naphthalen-2-yl)-1,2-diazetidin-3-one], the half-maximal inhibitory concentration (IC50) in experiment [1] (Table 1) was 0.028 µM; in experiment [2] it was 3 to 30 µM.

Regarding `CC1(C)C(=O)N(C2C3CC4CC(C3)CC2C4)N1C(=O)c1cccc2ccccc12` (centres unmarked) [Example 141, 4,4-dimethyl-1-(naphthalen-1-ylcarbonyl)-2-(adamantan-2-yl)-1,2-diazetidin-3-one], the concentration for half-maximal inhibition (IC50) was 0.071 µM in experiment [1] (Table 1) and 14 µM in experiment [2].

On to `CC1(C)C(=O)N(C2C3CC4CC(C3)CC2C4)N1C(=O)c1ccccc1F` (centres unmarked) [Example 119, 1-[(2-fluorophenyl)carbonyl]-4,4-dimethyl-2-(adamantan-2-yl)-1,2-diazetidin-3-one], for which the IC50 in experiment [1] (Table 1) was 0.72 µM; in experiment [2] it was more than 30 µM.

For the compound `COc1ccc(N2N(C3C4CC5CC(C4)CC3C5)C(=O)C2(C)C)cc1` (centres unmarked) [Example 203, 1-(4-methoxyphenyl)-4,4-dimethyl-2-(adamantan-2-yl)-1,2-diazetidin-3-one], the figures for the IC50 in experiment [1] (Table 1) and in experiment [2] were 0.026 µM and more than 30 µM, respectively.

Consider `CC1(C)C(=O)N(C2C3CC4CC(C3)CC2C4)N1c1ccccc1` (centres unmarked) [Example 181, 4,4-dimethyl-1-phenyl-2-(adamantan-2-yl)-1,2-diazetidin-3-one], for which the IC50 in experiment [1] (Table 1) was 0.062 µM; in experiment [2], 3 to 30 µM.

For the compound `CC1(C)C(=O)N(C2C3CC4CC(C3)CC2C4)N1C(=O)c1ccccc1Br` (centres unmarked) [Example 120, 1-[(2-bromophenyl)carbonyl]-4,4-dimethyl-2-(adamantan-2-yl)-1,2-diazetidin-3-one], the 50% inhibitory concentration (IC50) in experiment [1] (Table 1) is 0.27 µM; in experiment [2], more than 30 µM.

Consider `CC1(C)C(=O)N(C2C3CC4CC(C3)CC2C4)N1/C=C/c1ccccc1` (centres unmarked) [Example 265, 4,4-dimethyl-1-[(E)-2-phenylethenyl]-2-(adamantan-2-yl)-1,2-diazetidin-3-one], for which the IC50 in experiment [1] (Table 1) was 0.036 µM; in experiment [2] it was 19 µM.

With `CC1(C)C(=O)N(C2CCCCCC2)N1Cc1ccc(F)cc1Cl` [Example 86, 1-(2-chloro-4-fluorobenzyl)-2-cycloheptyl-4,4-dimethyl-1,2-diazetidin-3-one], the IC50 in experiment [1] (Table 2) stood at 0.14 µM; in experiment [3] it was 0.49 µM.

`Cc1cccc(C(=O)N2N(C3CCCCCCC3)C(=O)C2(C)C)c1` [Example 151, 2-cyclooctyl-4,4-dimethyl-1-[(3-methylphenyl)carbonyl]-1,2-diazetidin-3-one]: the 50% inhibitory concentration (IC50) in experiment [1] (Table 1) came out at 0.81 µM; in experiment [3], 0.3 µM.

On to `CC1(C)C(=O)N([C@H]2C3CC4CC2C[C@@](O)(C4)C3)N1c1ccc(F)c2ccccc12` [Example 249, cis-1-(4-fluoronaphthalen-1-yl)-2-(5-hydroxyadamantan-2-yl)-4,4-dimethyl-1,2-diazetidin-3-one], for which the results for the IC50 in experiment [1] (Table 1) and in experiment [3] were 0.013 µM and 0.78 µM, respectively.

Turning to `CC1(C)C(=O)N(C2C3CC4CC(C3)CC2C4)N1Cc1ccc([N+](=O)[O-])cc1` (centres unmarked) [Example 31, 4,4-dimethyl-1-(4-nitrobenzyl)-2-(adamantan-2-yl)-1,2-diazetidin-3-one], the IC50 in experiment [1] (Table 2) was found to be 0.96 µM; in experiment [3], 0.3 µM.

`CC1(C)C(=O)N(C2C3CC4CC(C3)CC2C4)N1c1csc2ccccc12` (centres unmarked) [Example 210, 1-(1-benzothiophen-3-yl)-4,4-dimethyl-2-(adamantan-2-yl)-1,2-diazetidin-3-one]: the results for the half-inhibitory concentration (IC50) in experiment [1] (Table 2) and in experiment [3] were 0.44 µM and 0.16 µM, respectively.
